Source: patent US20190233884A1 (University of Southern California, priority 2016, published 2019)
Entries after “also recorded” stand apart in the source; their conditions may differ.

Tested on: patients with refractory metastatic colorectal cancer (mCRC)
Test: PFS, OS and disease control in the control cohort of refractory mCRC patients receiving regorafenib (n=52, Italy), by baseline characteristics and SNP genotype
Format: in vivo, human
Settings: for Median OS (months) / Median PFS (months): ITA REGORA cohort; for Disease Control CR/PR/SD, patients n (%) / Median OS (95% CI) / Median PFS (95% CI) / PD, patients n (%) / HR OS (95% CI) / HR PFS (95% CI) / Median OS / Median PFS / HR OS / HR PFS: control cohort
Protocol: All patients underwent the treatment in salvage-line setting.
Patients in the control group received 160 mg regorafenib (Bayer, Leverkusen, Germany) once daily from day 1 to 21 every 4 weeks. Doses were adjusted based on haematological and non-haematological adverse events at the treating physician's discretion in accordance with the manufacturer's recommendations. The analyses were approved by the University of Southern California (USC) Institutional Review Board of Medical Sciences and conducted at the USC/Norris Comprehensive Cancer Center in accordance with the Declaration of Helsinki and Good Clinical Practice Guidelines.
Genomic DNA was extracted from peripheral whole blood in patients of all cohorts using the QIAmp Kit (Qiagen, Valencia, Calif., USA) according to the manufacturer's protocol (www.qiagen.com). The candidate SNPs were genotyped using PCR-based direct DNA sequence analysis by ABI 3100A Capillary Genetic Analyzer and Sequencing Scanner v1.0 (Applied Biosystems). Amplification of extracted DNA was carried out using both forward and reverse primers for each gene polymorphism as shown in Table 1. […] The investigators analyzing SNPs were blinded to the clinical data of the study patients.
The primary endpoint in this study was progression-free survival (PFS), and the secondary endpoints were overall survival (OS) and disease control rate (DCR). PFS was calculated from the date of starting treatment to the first observation of disease progression or death from any cause. If a patient had no disease progression or death, PFS was censored at the date of last follow up. OS was calculated from the date of starting treatment until the date of death from any cause or the date of the last follow-up, at which point OS was censored. The disease control rate (DCR) was defined as the proportion of patients who achieved a stable disease (SD) or […] according to RECISTv1.1. Chi-square test was used to examine the difference in baseline patient characteristics among the three cohorts. Allelic distribution of all SNPs by ethnicity for deviation from Hardy-Weinberg equilibrium and the allelic frequencies of SNPs were tested using the Chi-square tests with one degree of freedom. The associations between candidate SNPs and disease control, and toxicities were examined using contingency tables and Fisher's exact test. The associations of SNPs with PFS and OS were analysed using Kaplan-Meier curves and the log-rank test. Because the true mode of inheritance of candidate SNPs was not established yet, a codominant or dominant genetic model if appropriate was considered.
All patients underwent the treatment in salvage-line setting. […] In all patients, adverse events were graded according to the Common Terminology Criteria for Adverse Events, version 4.0.
Patients in the control group received 160 mg regorafenib (Bayer, Leverkusen, Germany) once daily from day 1 to 21 every 4 weeks. Doses were adjusted based on haematological and non-haematological adverse events at treating physician's discretion in accordance with the manufacturer's recommendations. The analyses were approved by the University of Southern California (USC) Institutional Review Board of Medical Sciences and conducted at the USC/Norris Comprehensive Cancer Center in accordance with the Declaration of Helsinki and Good Clinical Practice Guidelines.
Genomic DNA was extracted from peripheral whole blood in patients of all cohorts using the QIAmp Kit (Qiagen, Valencia, Calif., USA) according to the manufacturer's protocol (www.qiagen.com). The candidate SNPs were tested using PCR-based direct DNA sequence analysis by ABI 3100A Capillary Genetic Analyzer and Sequencing Scanner v1.0 (Applied Biosystems). […] The investigators analyzing SNPs were blinded to the clinical data.
The primary endpoint in this study was progression-free survival (PFS), and the secondary endpoints were overall survival (OS) and disease control rate (DCR). […]

[1] = ATM rs609429 Any G vs C/C (Ref.), multivariable
[2] = ATM rs609429 Any G vs C/C (Ref.), univariate
[3] = Adjuvant history No vs Yes (Ref.), univariate
[4] = Age ≥61 vs <61 (Ref.), univariate
[5] = CHEK2 rs2267130 Any C vs T/T (Ref.), multivariable
[6] = CHEK2 rs2267130 Any C vs T/T (Ref.), univariate
[7] = CHEK2 rs2267130 C/C vs T/T (Ref.), multivariable
[8] = CHEK2 rs2267130 C/C vs T/T (Ref.), univariate
[9] = CHEK2 rs2267130 T/C vs T/T (Ref.), multivariable
[10] = CHEK2 rs2267130 T/C vs T/T (Ref.), univariate
[11] = KRAS Mutant vs Wild type (Ref.), univariate
[12] = LN metastasis No vs Yes (Ref.), univariate
[13] = Liver metastasis No vs Yes (Ref.), univariate
[14] = Lung metastasis No vs Yes (Ref.), univariate
[15] = Number of metastases >2 vs ≤2 (Ref.), univariate
[16] = Performance status ECOG 1 vs ECOG 0 (Ref.), univariate
[17] = Peritoneal No vs Yes (Ref.), univariate
[18] = Pre-chemo numbers ≥4 vs <4 (Ref.), univariate
[19] = Primary tumor resection No vs Yes (Ref.), univariate

## CNC(=O)c1cc(Oc2ccc(NC(=O)Nc3ccc(Cl)c(C(F)(F)F)c3)c(F)c2)ccn1 [regorafenib]
ATM rs609429 C/C (n=28)
  Median OS (months): 4.5 months
ATM rs609429 G/C or G/G (n=24)
  Median OS (months): 5.9 months
XRCC3 rs861539 G/A (n=37)
  Median OS (months): 5.9 months
  Median PFS (months): 1.9 months
XRCC3 rs861539 G/G (n=15)
  Median OS (months): 4.1 months
  Median PFS (months): 1.7 months
Control cohort receiving regorafenib without previous TAS-102, uni- and multivariate analyses
  association of candidate SNPs with PFS or OS: no significant differences; also recorded: no significant association
ATM rs609429 Any G
  Disease Control CR/PR/SD, patients n (%): 9 (38%)
  Median OS (95% CI): 5.9 (3.5, 10.2) months
  Median PFS (95% CI): 2.0 (1.7, 3.1) months
  PD, patients n (%): 15 (63%)
[1]
  HR OS (95% CI): 0.84 (0.47, 1.48)
  HR PFS (95% CI): 1.06 (0.60, 1.87)
[2]
  HR OS (95% CI): 1.91 (0.44, 8.31)
  HR PFS (95% CI): 0.95 (0.55, 1.66)
ATM rs609429 C/C
  Disease Control CR/PR/SD, patients n (%): 8 (32%)
  Median OS (95% CI): 4.6 (2.6, 7.6) months
  Median PFS (95% CI): 1.9 (1.6, 2.8) months
  PD, patients n (%): 17 (68%)
ATM rs609429 C/G
  Disease Control CR/PR/SD, patients n (%): 8 (38%)
  PD, patients n (%): 13 (62%)
ATM rs609429 G/G
  Disease Control CR/PR/SD, patients n (%): 1 (33%)
  PD, patients n (%): 2 (67%)
Adjuvant history No
  Median OS: 5.9 months
  Median PFS: 2.0 months
[3]
  HR OS: 0.59
  HR PFS: 0.71
Adjuvant history Yes
  Median OS: 3.9 months
  Median PFS: 1.8 months
Age <61
  Median OS: 5.1 months
  Median PFS: 1.8 months
Age ≥61
  Median OS: 5.8 months
  Median PFS: 2.1 months
[4]
  HR OS: 0.74
  HR PFS: 0.58
CHEK2 rs2267130 Any C
  Disease Control CR/PR/SD, patients n (%): 13 (36%)
  Median OS (95% CI): 5.9 (4.4, 7.9) months
  Median PFS (95% CI): 1.8 (1.7, 2.8) months
  PD, patients n (%): 23 (64%)
[5]
  HR OS (95% CI): 0.81 (0.42, 1.54)
  HR PFS (95% CI): 1.22 (0.65, 2.28)
[6]
  HR OS (95% CI): 0.80 (0.44, 1.48)
  HR PFS (95% CI): 1.07 (0.58, 1.95)
CHEK2 rs2267130 C/C
  Disease Control CR/PR/SD, patients n (%): 3 (27%)
  Median OS (95% CI): 5.7 (2.0, 7.8) months
  Median PFS (95% CI): 2.0 (1.5, 2.7) months
  PD, patients n (%): 8 (73%)
[7]
  HR OS (95% CI): 0.90 (0.41, 2.00)
  HR PFS (95% CI): 1.35 (0.61, 2.99)
[8]
  HR OS (95% CI): 0.89 (0.41, 1.97)
  HR PFS (95% CI): 1.18 (0.54, 2.59)
CHEK2 rs2267130 T/C
  Disease Control CR/PR/SD, patients n (%): 10 (40%)
  Median OS (95% CI): 6.2 (2.4, 8.9) months
  Median PFS (95% CI): 1.8 (1.6, 3.1) months
  PD, patients n (%): 15 (60%)
[9]
  HR OS (95% CI): 0.76 (0.38, 1.53)
  HR PFS (95% CI): 1.15 (0.58, 2.27)
[10]
  HR OS (95% CI): 0.77 (0.40, 1.48)
  HR PFS (95% CI): 1.02 (0.54, 1.95)
CHEK2 rs2267130 T/T
  Disease Control CR/PR/SD, patients n (%): 4 (31%)
  Median OS (95% CI): 3.8 (2.2, 8.0) months
  Median PFS (95% CI): 1.9 (1.4, 3.4) months
  PD, patients n (%): 9 (69%)
KRAS Mutant
  Median OS: 4.8 months
  Median PFS: 2.0 months
[11]
  HR OS: 0.93
  HR PFS: 1.05
KRAS Wild type
  Median OS: 6.3 months
  Median PFS: 1.9 months
LN metastasis No
  Median OS: 7.7 months
  Median PFS: 2.8 months
[12]
  HR OS: 0.62
  HR PFS: 0.52
LN metastasis Yes
  Median OS: 3.8 months
  Median PFS: 1.8 months
Liver metastasis No
  Median OS: 6.6 months
  Median PFS: 4.8 months
[13]
  HR OS: 0.61
  HR PFS: 0.46
Liver metastasis Yes
  Median OS: 4.7 months
  Median PFS: 1.9 months
Lung metastasis No
  Median OS: 3.7 months
  Median PFS: 2.0 months
[14]
  HR OS: 1.24
  HR PFS: 1.17
Lung metastasis Yes
  Median OS: 5.9 months
  Median PFS: 1.9 months
Number of metastases >2
  Median OS: 4.0 months
  Median PFS: 1.9 months
[15]
  HR OS: 1.59
  HR PFS: 1.86
Number of metastases ≤2
  Median OS: 6.3 months
  Median PFS: 2.8 months
Performance status ECOG 0
  Median OS: 5.9 months
  Median PFS: 2.1 months
Performance status ECOG 1
  Median OS: 2.4 months
  Median PFS: 1.2 months
[16]
  HR OS: 2.09
  HR PFS: 2.27
Peritoneal No
  Median OS: 5.5 months
  Median PFS: 2.0 months
[17]
  HR OS: 0.82
  HR PFS: 0.87
Peritoneal Yes
  Median OS: 5.1 months
  Median PFS: 1.9 months
Pre-chemo numbers <4
  Median OS: 6.0 months
  Median PFS: 2.0 months
Pre-chemo numbers ≥4
  Median OS: 4.7 months
  Median PFS: 1.8 months
[18]
  HR OS: 1.16
  HR PFS: 0.95
Primary tumor resection No
  Median OS: 4.2 months
  Median PFS: 2.0 months
[19]
  HR OS: 1.04
  HR PFS: 0.79
Primary tumor resection Yes
  Median OS: 5.6 months
  Median PFS: 1.9 months
